This is an account of results in paper PMC5122408, “High throughput chemical library screening identifies a novel p110-δ inhibitor that potentiates the anti-myeloma effect of bortezomib” (Oncotarget, 2016).

One test has as its system CLL cells. The test is described as follows: XTT viability, CLL cells (DT97 vs idelalisib). Format: cell-based. The note with it: 1 uM, 72 h, XTT assay. A general note: Tetrazolium assays rely on reduction of a dye to a coloured formazan, in cell work by metabolically active cells.
The target of another test is ERBB2 (Homo sapiens, UniProt P04626). More on the design: method as in PMID 20959606. The following applies: Other Clinically-relevant Kinases; cited from earlier work.
Another test concerns the target PKC2-α (Homo sapiens, UniProt O00443). Further details: method as in PMID 20959606. The following applies: Class II PI3Ks; cited from earlier work.
For another test, the target named is p110-α (Homo sapiens, UniProt P42336). More on the design: method as in PMID 20959606. The following applies: Class I PI3Ks; cited from earlier work.
For a further test, the system named is PKCγ. Further details: method as in PMID 20959606. The following applies: cited from earlier work.
A further test deals with ERBB4 (Homo sapiens, UniProt Q15303). Further details: method as in PMID 20959606. The note with it: Other Clinically-relevant Kinases; cited from earlier work.
For another test, the system named is PDGFR. Further details: method as in PMID 20959606. The note with it: Other Clinically-relevant Kinases; cited from earlier work.
The target in another test is p110-γ (Homo sapiens, UniProt P48736). Further details: method as in PMID 20959606; key to the marks not given beside the values. The following applies: Class I PI3Ks; cited from earlier work.
Another test concerns the target p110-δ (Homo sapiens, UniProt O00329). Further details: method as in PMID 20959606; key to the marks not given beside the values. The following applies: Class I PI3Ks; cited from earlier work.
The target in another test is p110-β (Homo sapiens, UniProt P42338). More on the design: method as in PMID 20959606. The following applies: Class I PI3Ks; cited from earlier work.
For another test, the system named is MM.1S myeloma cells. The experiment in a line: Mouse xenograft model of myeloma. The note with it: subcutaneous myeloma xenograft; intravenous; bortezomib 0.5 mg/kg, DT97 10 mg/kg. The class given is in vivo, mice.

Sequence of ERBB2 (P04626 23-1255): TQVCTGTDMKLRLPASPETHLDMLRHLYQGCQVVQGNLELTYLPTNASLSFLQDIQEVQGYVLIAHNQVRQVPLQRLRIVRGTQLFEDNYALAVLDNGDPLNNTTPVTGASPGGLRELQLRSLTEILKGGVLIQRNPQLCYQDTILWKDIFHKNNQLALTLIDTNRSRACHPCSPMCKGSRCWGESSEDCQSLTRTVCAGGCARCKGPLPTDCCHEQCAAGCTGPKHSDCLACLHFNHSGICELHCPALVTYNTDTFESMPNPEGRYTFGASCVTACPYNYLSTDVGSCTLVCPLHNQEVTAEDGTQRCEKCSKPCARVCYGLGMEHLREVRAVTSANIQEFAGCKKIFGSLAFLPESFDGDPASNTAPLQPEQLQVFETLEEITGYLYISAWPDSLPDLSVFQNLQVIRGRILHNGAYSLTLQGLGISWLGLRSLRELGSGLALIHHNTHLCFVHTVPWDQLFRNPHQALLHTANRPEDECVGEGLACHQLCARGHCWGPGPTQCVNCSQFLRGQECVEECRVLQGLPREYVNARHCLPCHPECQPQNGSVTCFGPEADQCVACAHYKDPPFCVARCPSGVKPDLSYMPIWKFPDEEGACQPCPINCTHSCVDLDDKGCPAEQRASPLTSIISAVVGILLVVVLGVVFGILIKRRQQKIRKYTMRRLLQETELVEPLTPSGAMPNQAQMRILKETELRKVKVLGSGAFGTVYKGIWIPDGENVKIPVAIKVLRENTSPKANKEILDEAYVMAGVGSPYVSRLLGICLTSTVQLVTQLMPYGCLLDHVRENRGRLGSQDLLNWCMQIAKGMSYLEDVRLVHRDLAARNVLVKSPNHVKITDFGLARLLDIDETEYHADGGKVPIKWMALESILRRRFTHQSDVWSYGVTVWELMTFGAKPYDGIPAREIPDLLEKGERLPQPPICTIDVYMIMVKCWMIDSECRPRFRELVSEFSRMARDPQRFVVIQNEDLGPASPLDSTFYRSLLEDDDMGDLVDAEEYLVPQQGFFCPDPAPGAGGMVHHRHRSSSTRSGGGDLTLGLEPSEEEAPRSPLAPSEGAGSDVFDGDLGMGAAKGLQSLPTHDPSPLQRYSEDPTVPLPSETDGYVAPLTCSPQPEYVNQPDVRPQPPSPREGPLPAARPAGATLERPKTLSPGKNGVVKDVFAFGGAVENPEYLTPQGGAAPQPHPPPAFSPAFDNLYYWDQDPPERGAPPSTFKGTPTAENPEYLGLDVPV
Sequence of PKC2-α (O00443 whole entry): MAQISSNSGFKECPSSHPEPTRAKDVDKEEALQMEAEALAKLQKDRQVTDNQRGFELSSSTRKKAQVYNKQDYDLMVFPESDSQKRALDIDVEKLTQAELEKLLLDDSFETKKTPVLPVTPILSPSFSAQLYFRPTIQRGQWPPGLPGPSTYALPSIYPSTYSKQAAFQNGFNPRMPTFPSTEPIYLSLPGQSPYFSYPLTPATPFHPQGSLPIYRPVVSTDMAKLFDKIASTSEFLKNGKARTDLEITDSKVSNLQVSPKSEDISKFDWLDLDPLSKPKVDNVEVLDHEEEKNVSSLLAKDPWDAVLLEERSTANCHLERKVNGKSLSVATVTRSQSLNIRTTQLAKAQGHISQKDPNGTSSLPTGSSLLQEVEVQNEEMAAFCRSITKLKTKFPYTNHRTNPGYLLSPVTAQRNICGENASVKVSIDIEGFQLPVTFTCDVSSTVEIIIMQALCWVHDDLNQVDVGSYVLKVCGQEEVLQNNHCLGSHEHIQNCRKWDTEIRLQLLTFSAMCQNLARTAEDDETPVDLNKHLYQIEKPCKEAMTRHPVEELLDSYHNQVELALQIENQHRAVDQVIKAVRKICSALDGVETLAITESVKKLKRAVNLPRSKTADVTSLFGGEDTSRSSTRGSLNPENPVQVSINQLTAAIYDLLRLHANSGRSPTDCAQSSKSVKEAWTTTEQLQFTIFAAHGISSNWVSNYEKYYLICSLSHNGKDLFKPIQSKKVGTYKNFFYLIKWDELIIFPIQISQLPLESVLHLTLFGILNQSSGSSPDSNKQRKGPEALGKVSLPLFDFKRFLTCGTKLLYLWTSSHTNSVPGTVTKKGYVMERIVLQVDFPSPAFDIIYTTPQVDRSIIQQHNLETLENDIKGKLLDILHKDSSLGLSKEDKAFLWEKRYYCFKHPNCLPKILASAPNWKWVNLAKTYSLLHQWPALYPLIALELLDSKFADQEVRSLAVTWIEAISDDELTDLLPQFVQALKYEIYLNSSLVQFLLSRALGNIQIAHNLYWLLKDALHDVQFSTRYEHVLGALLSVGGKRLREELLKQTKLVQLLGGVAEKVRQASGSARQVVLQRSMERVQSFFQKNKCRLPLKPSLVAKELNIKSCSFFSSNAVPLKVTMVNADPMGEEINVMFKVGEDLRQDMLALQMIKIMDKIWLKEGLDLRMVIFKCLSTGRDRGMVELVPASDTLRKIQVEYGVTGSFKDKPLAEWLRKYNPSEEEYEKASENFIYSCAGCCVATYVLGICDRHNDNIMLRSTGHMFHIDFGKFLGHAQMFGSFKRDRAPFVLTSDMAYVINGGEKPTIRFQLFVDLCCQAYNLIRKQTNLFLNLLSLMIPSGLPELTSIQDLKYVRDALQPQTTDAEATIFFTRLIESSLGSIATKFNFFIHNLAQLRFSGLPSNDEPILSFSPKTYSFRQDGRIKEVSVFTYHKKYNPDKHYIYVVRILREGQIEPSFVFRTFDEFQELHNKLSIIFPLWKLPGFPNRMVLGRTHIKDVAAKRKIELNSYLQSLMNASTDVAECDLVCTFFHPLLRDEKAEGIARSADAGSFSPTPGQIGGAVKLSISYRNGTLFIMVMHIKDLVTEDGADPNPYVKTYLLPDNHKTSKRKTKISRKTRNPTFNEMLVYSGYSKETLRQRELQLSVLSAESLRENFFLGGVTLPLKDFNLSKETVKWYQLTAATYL
Sequence of p110-β (P42338 whole entry): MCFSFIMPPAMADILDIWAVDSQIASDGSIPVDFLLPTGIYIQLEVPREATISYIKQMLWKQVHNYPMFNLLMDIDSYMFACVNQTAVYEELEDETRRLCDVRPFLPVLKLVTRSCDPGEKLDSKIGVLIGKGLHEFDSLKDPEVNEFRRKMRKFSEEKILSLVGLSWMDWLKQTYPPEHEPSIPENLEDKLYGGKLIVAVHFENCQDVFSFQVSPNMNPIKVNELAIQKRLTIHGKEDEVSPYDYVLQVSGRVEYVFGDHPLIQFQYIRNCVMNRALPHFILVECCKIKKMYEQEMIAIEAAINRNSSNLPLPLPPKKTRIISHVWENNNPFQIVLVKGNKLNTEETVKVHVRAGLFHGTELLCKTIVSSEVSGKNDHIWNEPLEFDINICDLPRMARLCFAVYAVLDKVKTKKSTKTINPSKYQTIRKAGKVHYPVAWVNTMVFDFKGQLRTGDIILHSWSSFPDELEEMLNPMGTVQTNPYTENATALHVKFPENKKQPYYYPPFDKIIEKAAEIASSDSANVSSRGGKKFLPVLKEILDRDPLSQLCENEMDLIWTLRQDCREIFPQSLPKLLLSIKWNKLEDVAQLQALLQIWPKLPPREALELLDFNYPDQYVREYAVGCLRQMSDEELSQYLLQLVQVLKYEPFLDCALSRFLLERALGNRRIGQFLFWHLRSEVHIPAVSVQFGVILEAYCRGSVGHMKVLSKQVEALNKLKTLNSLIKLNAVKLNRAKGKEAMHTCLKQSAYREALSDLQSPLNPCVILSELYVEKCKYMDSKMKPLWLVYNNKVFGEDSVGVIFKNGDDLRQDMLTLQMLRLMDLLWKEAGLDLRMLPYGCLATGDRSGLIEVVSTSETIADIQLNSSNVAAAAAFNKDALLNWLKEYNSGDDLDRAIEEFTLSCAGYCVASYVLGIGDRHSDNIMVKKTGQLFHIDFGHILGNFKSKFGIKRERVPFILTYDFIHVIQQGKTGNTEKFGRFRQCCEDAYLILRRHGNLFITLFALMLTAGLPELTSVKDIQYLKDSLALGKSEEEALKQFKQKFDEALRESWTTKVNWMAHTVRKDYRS
Sequence of p110-β (P27986 whole entry partner): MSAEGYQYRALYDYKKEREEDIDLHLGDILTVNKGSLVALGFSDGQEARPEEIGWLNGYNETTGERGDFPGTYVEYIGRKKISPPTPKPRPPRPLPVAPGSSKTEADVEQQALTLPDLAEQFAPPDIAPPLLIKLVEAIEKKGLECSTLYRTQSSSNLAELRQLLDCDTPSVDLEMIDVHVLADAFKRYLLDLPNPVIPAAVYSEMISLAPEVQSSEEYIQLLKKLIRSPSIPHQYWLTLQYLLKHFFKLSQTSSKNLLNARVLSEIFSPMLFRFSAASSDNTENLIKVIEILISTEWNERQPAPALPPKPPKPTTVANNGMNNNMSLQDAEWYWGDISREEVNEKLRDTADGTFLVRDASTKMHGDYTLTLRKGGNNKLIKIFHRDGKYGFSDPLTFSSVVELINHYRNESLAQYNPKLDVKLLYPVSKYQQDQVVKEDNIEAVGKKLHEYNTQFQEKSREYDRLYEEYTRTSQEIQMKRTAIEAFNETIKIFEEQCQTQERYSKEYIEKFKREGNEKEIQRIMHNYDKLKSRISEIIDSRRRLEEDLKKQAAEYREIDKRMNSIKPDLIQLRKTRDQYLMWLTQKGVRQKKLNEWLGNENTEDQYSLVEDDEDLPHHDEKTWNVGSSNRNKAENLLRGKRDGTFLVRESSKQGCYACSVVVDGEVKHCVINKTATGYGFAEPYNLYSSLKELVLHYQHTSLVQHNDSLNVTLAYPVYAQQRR
Description for MM.1S myeloma cells: Five week old nude mice flanks are injected subcutaneously with MM.1S myeloma cells. Tumors formed within two weeks and mice were then treated intravenously with vehicle, bortezomib, DT97 or both bortezomib and DT97.
Subcutaneous tumors were generated after injection of myeloma cells. […] Vehicle or bortezomib was administered on days 1, 4, 8 and 11. Mice were euthanized when tumors reached 2 cm^3, became ulcerated or elicited neurologic or musculoskeletal complications that limited mobility and feeding. Survival and tumor growth were evaluated from the first day of treatment. Shown is the average of replicate measurements. […] Kaplan-Meier survival curves comparison of NOD. SCID mice after subcutaneous injection of parental myeloma cells treated with vehicle, DT97, bortezomib or both.
Mice received intravenous injection of either vehicle (PBS in 10% DMSO); bortezomib (0.5 mg/kg), DT97 (10 mg/kg) or both bortezomib and DT97. Tumor volume (TV) measurements were made using a vernier caliper and calculated using the formula: TV = 0.5 (a × b^2) where a is the long diameter and b the short diameter. Mice were euthanized when tumors reached 2 cm^3, became ulcerated or elicited neurologic or musculoskeletal complications that limited mobility and feeding.
In vivo statistical tests were performed using the 2-tailed Student t test.

As to `CC[C@H](Nc1ncnc2[nH]cnc12)c1nc2cccc(F)c2c(=O)n1-c1ccccc1` [Idelalisib, idelalisib], in the test with CLL cells, the viability entry was “more effectively reduced the viability”. Further, the “Inhibitory profile (kinase inhibition)” value at ERBB2 is listed as “none”; on PKC2-α, “none”; on p110-α, “+”; in the test on PKCγ it was “none”; on ERBB4 it was “none”; in the test on PDGFR, “none”. Also, the “Inhibitory profile (kinase inhibition)” value at p110-γ is “++”; on p110-δ, “+++”; at p110-β it was “+”.
Regarding `CC(C)C[C@H](NC(=O)[C@H](Cc1ccccc1)NC(=O)c1cnccn1)B(O)O` [bortezomib], in the test on MM.1S myeloma cells, the “overall survival (OS)” value stood at 20 days and the tumor growth result is recorded as “dramatically reduced tumor growth”.
